From patent US20240368135A1 (VERTEX PHARMACEUTICALS INCORPORATED, priority 2021, published 2024) come the findings set out here.

As a reminder, the IC50 is the midpoint of a concentration-inhibition curve.

For this experiment, the target named is human NaV 1.8 (Homo sapiens, UniProt Q9Y5Y9). Put plainly: E-VIPR assay detecting and measuring NaV inhibition properties. To be noted: HEK cells expressing truncated human NaV 1.8. The format is cell-based. The method in brief:
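HEK cells expressing truncated, fully active human NaV1.8, with KIR2.1 BacMam co-transduction, were loaded with CC2-DMPE/DiSBAC6(3) voltage-sensing dyes for 20 min at room temperature. Compounds were tested in 11-point 3-fold dilutions (300 nM top final), optionally with 25% human serum, under electrical stimulation with FRET read-out.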

Where [1] appears, read: no human serum, read-out: IC50 in the E-VIPR Assay.

Molecules are shown by their SMILES. Read-outs that look alike come from different tables or passages of the source. Some results are limits rather than exact numbers.

Chain of human NaV 1.8 (Q9Y5Y9 126-399 limits assumed): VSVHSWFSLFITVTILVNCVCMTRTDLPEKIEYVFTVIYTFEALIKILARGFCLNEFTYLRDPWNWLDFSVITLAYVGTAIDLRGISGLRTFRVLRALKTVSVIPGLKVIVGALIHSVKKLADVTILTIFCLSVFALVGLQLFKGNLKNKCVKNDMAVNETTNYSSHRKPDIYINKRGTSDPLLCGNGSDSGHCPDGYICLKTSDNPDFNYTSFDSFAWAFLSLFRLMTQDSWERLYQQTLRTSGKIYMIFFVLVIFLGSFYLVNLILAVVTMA
Chain of human NaV 1.8 (Q9Y5Y9 660-890 limits assumed): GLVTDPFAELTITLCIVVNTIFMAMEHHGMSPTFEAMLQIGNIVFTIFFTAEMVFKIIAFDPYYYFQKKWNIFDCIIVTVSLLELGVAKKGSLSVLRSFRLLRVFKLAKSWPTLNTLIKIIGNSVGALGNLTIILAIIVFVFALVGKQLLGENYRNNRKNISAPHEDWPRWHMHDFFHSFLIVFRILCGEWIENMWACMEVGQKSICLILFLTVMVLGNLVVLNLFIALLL
Chain of human NaV 1.8 (Q9Y5Y9 1148-1722 limits assumed): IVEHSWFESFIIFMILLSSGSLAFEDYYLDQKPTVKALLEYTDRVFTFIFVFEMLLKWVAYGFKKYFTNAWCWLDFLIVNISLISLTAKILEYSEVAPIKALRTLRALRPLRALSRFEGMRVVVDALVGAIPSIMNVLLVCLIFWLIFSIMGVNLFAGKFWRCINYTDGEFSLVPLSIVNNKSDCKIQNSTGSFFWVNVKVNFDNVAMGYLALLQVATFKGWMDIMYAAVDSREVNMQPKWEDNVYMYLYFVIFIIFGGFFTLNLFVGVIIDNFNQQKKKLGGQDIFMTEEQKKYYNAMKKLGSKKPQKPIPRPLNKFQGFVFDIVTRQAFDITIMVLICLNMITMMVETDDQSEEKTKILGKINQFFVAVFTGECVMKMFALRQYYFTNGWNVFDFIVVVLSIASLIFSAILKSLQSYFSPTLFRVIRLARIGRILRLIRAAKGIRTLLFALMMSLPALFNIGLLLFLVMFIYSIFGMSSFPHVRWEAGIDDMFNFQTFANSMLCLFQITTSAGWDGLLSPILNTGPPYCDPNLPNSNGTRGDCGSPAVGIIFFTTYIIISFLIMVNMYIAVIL

For `CCS(=O)(=O)c1cc(NC(=O)[C@@H]2O[C@@](C)(C(F)(F)F)[C@@H](C)[C@H]2c2ccc(F)c(F)c2OC(F)F)ccn1` (single isomer, unassigned) [Compound 90], the 50% inhibitory concentration (IC50) under setting [1] was less than 10 nM.

With `COc1c([C@H]2[C@H](C(=O)Nc3ccnc(CC(C)(C)O)c3)O[C@@](C)(C(F)(F)F)[C@H]2C)ccc(F)c1F` [Compound 405, (2R,3S,4S,5R)-3-(3,4-difluoro-2-methoxy-phenyl)-N-[2-(2-hydroxy-2-methyl-propyl)-4-pyridyl]-4,5-dimethyl-5-(trifluoromethyl)tetrahydrofuran-2-carboxamide], the IC50 under setting [1] was in the range of 10 to 100 nM.

On to `C[C@H]1[C@@H](c2ccc(F)c(F)c2OCCN2CC3(COC3)C2)[C@H](C(=O)Nc2cccnc2)O[C@@]1(C)C(F)(F)F` [Compound 636], for which the IC50 under setting [1] is 10 to 100 nM.

In the case of `COc1c([C@H]2[C@H](C(=O)Nc3ccnc(N4CCN(C)[C@@H](C)C4=O)c3)O[C@@](C)(C(F)(F)F)[C@H]2C)ccc(F)c1F` [Compound 476, (2R,3S,4S,5R)-3-(3,4-difluoro-2-methoxyphenyl)-N-(2-((S)-3,4-dimethyl-2-oxopiperazin-1-yl)pyridin-4-yl)-4,5-dimethyl-5-(trifluoromethyl)tetrahydrofuran-2-carboxamide], the IC50 under setting [1] lay in the range of 10 to 100 nM.

Regarding `CNC(COC)c1cc(NC(=O)[C@@H]2O[C@@](C)(C(F)(F)F)[C@@H](C)[C@H]2c2ccc(F)c(F)c2OC)c(F)cn1` (single isomer, unassigned) [Compound 418, rel-(2R*,3S*,4S*,5R*)-3-(3,4-difluoro-2-methoxyphenyl)-N-(5-fluoro-2-(2-methoxy-1-(methylamino)ethyl)-pyridin-4-yl)-4,5-dimethyl-5-(trifluoromethyl)-tetrahydrofuran-2-carboxamide], the IC50 under setting [1] was less than 10 nM.

Take `COc1c([C@@H]2[C@@H](C(=O)Nc3ccnc(C(O)CO)c3)O[C@](C)(C(F)(F)F)[C@@H]2C)ccc(F)c1C` (single isomer, unassigned) [Compound 136]: the IC50 (in the presence of human serum (compound numbers followed by *), read-out: IC50 in the E-VIPR Assay, performed in the presence of human serum) is no less than 1000 nM.

Regarding `C[C@H]1[C@@H](c2ccc(F)c(F)c2OCC2COC2)[C@H](C(=O)Nc2cccnc2)O[C@@]1(C)C(F)(F)F` [Compound 578, (2R,3S,4S,5R)-3-(3,4-difluoro-2-(oxetan-3-ylmethoxy)phenyl)-4,5-dimethyl-N-(pyridin-3-yl)-5-(trifluoromethyl)tetrahydrofuran-2-carboxamide], under setting [1], the IC50 was 10 to 100 nM.

Turning to `C[C@H]1[C@@H](c2ccc(F)c(F)c2OC(F)F)[C@H](C(=O)Nc2cncc(S(C)(=O)=O)c2)O[C@@]1(C)C(F)(F)F` (single isomer, unassigned) [Compound 96], the IC50 under setting [1] was less than 10 nM.

Regarding `CCOc1c([C@H]2[C@H](C(=O)Nc3ccnc(S(C)(=N)=O)c3)O[C@@](C)(C(F)(F)F)[C@H]2C)ccc(F)c1F` (single isomer, unassigned) [Compound 111], the 50% inhibitory concentration (IC50) under setting [1] was less than 10 nM.

For the compound `COc1c([C@H]2[C@H](C(=O)Nc3cn(C4COC4)nc3C)O[C@@](C)(C(F)(F)F)[C@H]2C)ccc(F)c1F` (single isomer, unassigned) [Compound 330], under setting [1], the IC50 was less than 10 nM.

Take `COc1c([C@H]2[C@H](C(=O)Nc3ccc(-c4nncn4C)nc3)O[C@@](C)(C(F)(F)F)[C@H]2C)ccc(F)c1F` [Compound 397, (2R,3S,4S,5R)-3-(3,4-difluoro-2-methoxyphenyl)-4,5-dimethyl-N-(6-(4-methyl-4H-1,2,4-triazol-3-yl)pyridin-3-yl)-5-(trifluoromethyl)-tetrahydrofuran-2-carboxamide]: under setting [1], the IC50 lay in the range of 100 to 1000 nM.

`CNC1CC(=O)N(c2cc(NC(=O)[C@@H]3O[C@@](C)(C(F)(F)F)[C@@H](C)[C@H]3c3ccc(F)c(F)c3OC)ccn2)C1` (single isomer, unassigned) [Compound 499, rel-(2R*,3S*,4S*,5R*)-3-(3,4-difluoro-2-methoxyphenyl)-4,5-dimethyl-N-(2-(4-(methylamino)-2-oxopyrrolidin-1-yl)pyridin-4-yl)-5-(trifluoromethyl)tetrahydrofuran-2-carboxamide]: under setting [1], the IC50 was 10 to 100 nM.
